Patent publication US12152038B2, “Vasopressin receptor antagonists and products and methods related thereto” (Neumora Therapeutics, Inc., priority 2017, dated 2024)

Columns and labels:
V1a receptors = target: T1, V1a receptors (Rattus norvegicus, UniProt P30560); experiment: AVP induced phospho-ERK measurement in rat choroid plexus (RCP) cells; type: cell-based; settings: RCP cells stimulated with AVP, pERK1/2 to total ERK1/2 ratio
T1 construct: Rat choroid plexus (RCP) cell lines express functional V1a receptors; endogenous in cells; host or cells: rat choroid plexus (RCP) cell line, RCP P9(18)
Experimental: Rat choroid plexus (RCP) cell lines express functional V1a receptors measured by increased calcium concentrations in response to V1a receptor agonists (Battle et al., Biochem. Biophys. Res. Comm. 2000).
RCP P9(18) cells were seeded 30K/well, in 100 μl growth medium containing 10% FBS in polystyrene 96-well plates and incubated at 37° C., 5% CO2 and incubated overnight. The following day, the growth medium was replaced with 50 μl pre-warmed HBSS containing 20 mM HEPES and the cells were incubated at 37° C., 5% CO2 for 1.5 hrs. 1 mM AVP (Sigma V9879) was freshly prepared in distilled water in a glass vial and diluted to 3× concentrations in HBSS containing 20 mM HEPES and 0.1% BSA in glass vials and kept on ice. […] Final concentrations of AVP: 10, 100 or 1000 nM. […] Cells were lysed with 25 μl 4×CST lysis buffer containing protease and phosphatase inhibitors, PMSF and SDS and then stored at −80° C., for 48 h. The lysates were thawed, centrifuged at 2000 g for 30 min at 4° C. and 40 μl supernatants assayed for pERK1/2 (Thr202/Tyr204; Thr185/Tyr187) and total ERK1/2 using MSD kit K15107D. The MSD ECL data for the lysates were corrected for no cell blanks, then phospho-protein levels expressed as a ratio to the total ERK1/2 level. The ratios were expressed as fold-change from the vehicle-treated control at each timepoint.

Male CD-1 mice = experiment: AVP induced scratching, digging and grooming behavior in mouse; type: in vivo; settings: 100 mg/kg, po; AVP i.c.v.; 15 minutes observation
From the text: Administration of Arginine-Vasopressin (AVP) intracerebroventricularly (i.c.v.) elicits characteristic scratching, digging and grooming behavior in mice that can be measured readily and is sensitive to blockade with vasopressin antagonists (Meisenberg, Ann N Y Acad Sci. 525:257-69, 1988; Bleickardt et. al., Psychopharmacology (Berl). 202(4):711-8, 2009).
Male CD-1 mice (Charles River Germany) weighing 22-25 g upon the study in-life were used for this study. Animals were housed in groups of 4-5 per cage in standard temperature (22±1° C.) and light-controlled environment (lights on from 7 am to 8 pm), with ad libitum access to food and water. Prior to commencing any procedures to the mice, they were allowed to habituate in the vivarium for a minimum of 7 days. Anesthesia was induced in a plexiglass chamber for 2-3 min with 5% isoflurane and maintained through a snout mask with 1-2% isoflurane thereafter. A homeothermic blanket system with a rectal probe was used to monitor and maintain the animal's body temperature at 37.0° C.±1.5° C. during the operation. Anesthetized mice were placed in a stereotaxic apparatus and skin between the ears shaved and disinfected with povidone-iodine solution (Betadine). A 10-μl Hamilton syringe with 28-gauge needle was used for the i.c.v. injections. All animals receive identical AVP injections (3.689 μM) or sterile saline (0.9% sodium chloride solution) into the right lateral ventricle at the following coordinates: AP=+0.5 mm; ML=+1.0 mm; DV=−2.5 mm (approximately from bregma). The actual coordinates were calculated by the distance from the point in midline between the eyes and no skin incision was made. […]
Mice were observed and video-recorded for 15 minutes following AVP/saline administration and behaviors were measured (in seconds) and a cumulative time was calculated. […] Using this assay, balovaptan (100 and 300 mg/kg, po), JNJ-17308616 (30, 100 mg/kg, po) and Compound No. 1-83B (100, 300, 500 mg/kg, po) were evaluated for antagonist activity to AVP-induced scratching behaviors.

T1 sequence (P30560 whole entry): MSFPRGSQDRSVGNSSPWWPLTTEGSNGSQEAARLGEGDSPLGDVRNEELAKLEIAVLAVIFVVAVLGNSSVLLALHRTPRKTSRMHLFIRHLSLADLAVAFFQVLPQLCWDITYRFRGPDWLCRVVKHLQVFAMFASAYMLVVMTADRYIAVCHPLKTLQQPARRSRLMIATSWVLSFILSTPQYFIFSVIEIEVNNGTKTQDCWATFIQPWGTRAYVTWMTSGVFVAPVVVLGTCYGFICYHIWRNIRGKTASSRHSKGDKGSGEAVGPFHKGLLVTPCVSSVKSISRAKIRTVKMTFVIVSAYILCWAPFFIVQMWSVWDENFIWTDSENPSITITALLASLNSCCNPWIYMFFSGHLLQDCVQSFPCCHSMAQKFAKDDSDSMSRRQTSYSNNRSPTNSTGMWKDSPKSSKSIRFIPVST

IC50 (V1a receptors; first study): 0.0109 µM | IC50 (V1a receptors; second study): 0.0136 µM
SMILES: CN1Cc2cc(Cl)ccc2-n2c(nnc2[C@H]2CC[C@H](Oc3ccccn3)CC2)C1 [balovaptan, reference compound]
antagonist activity to AVP-induced scratching behaviors (Male CD-1 mice): effective
